Data published in PMC7363834, “A STING-based biosensor affords broad cyclic dinucleotide detection within single living eukaryotic cells” (Nature Communications, 2020).

Assays:
[1] = target: T1, BioSTING (Mus musculus, UniProt Q3TBT3); assay: DRaCALA radioactive nucleotide binding assay of BioSTING; set-up: species or system murine; conditions: excess (500 µM) unlabeled nucleotide
T1 construct: FRET pair mTFP and mKO2 at L152 and E335, respectively; His tag (N); made in house; host or cells: E. coli Rosetta (DE3)pLysS
T1 sequence (Q3TBT3 152-335): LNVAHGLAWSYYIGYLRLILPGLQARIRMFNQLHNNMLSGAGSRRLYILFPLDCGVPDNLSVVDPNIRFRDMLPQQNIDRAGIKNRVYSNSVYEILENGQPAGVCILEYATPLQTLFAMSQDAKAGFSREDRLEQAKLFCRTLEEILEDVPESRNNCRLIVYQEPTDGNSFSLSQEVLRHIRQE

[2] = target: T2, STING-CTD (mSTING-CTD) (Mus musculus, UniProt Q3TBT3); assay: DRaCALA radioactive nucleotide binding assay of STING-CTD; set-up: species or system murine; conditions: excess (500 µM) unlabeled nucleotide
T2 construct: made in house; host or cells: E. coli Rosetta (DE3)pLysS; plasmid pET28-mSTING-CTD, gift from Russell Vance
T2 sequence (Q3TBT3 134-378 limits assumed): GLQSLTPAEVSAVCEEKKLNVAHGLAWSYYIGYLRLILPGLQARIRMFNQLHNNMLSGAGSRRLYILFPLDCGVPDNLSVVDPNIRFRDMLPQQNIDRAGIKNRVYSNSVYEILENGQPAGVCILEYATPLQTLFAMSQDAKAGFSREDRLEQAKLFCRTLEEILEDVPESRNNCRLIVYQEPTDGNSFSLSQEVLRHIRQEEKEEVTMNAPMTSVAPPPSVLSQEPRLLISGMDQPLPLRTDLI

SMILES	competition of bound [32P] 2ʼ3ʼ-cGAMP by unlabeled nucleotide [1]	competition of bound [32P] 2ʼ3ʼ-cGAMP by unlabeled nucleotide [2]
Nc1nc2c(ncn2[C@@H]2O[C@H](COP(=O)(O)OP(=O)(O)OP(=O)(O)O)[C@@H](O)[C@H]2O)c(=O)[nH]1 [GTP]	not	not
Nc1ncnc2c1ncn2[C@@H]1O[C@H](COP(=O)(O)OP(=O)(O)OP(=O)(O)O)[C@@H](O)[C@H]1O [ATP]	not	not
Nc1nc2c(ncn2[C@@H]2O[C@@H]3COP(=O)(O)O[C@H]3[C@H]2O)c(=O)[nH]1 [cGMP]	not	not
